From patent US7576057B2, “Cyclic peptides” (Scynexis, Inc., priority 2006, dated 2009)

Experiments:
[1] = tested on: human hepatoma cell line ET (lub ubi neo/ET); test: Cytotoxicity (colorimetric cell number assay) in the ET line; details: cytotoxicity versus antiviral activity
Experimental: The compounds were dissolved in DMSO at five half-log concentrations each, ranging from either 0.03 to 3 μM or 1 to 100 μM. Subconfluent cultures of the ET line were plated out into 96 well plates dedicated for the analysis of cell numbers (cytotoxicity) or antiviral activity and the next day the compounds were added to the appropriate wells. […] Compound EC50 and EC90 values were derived from HCV RNA levels assessed as HCV RNA replicon derived LUC activity. Cytotoxicity was expressed as IC50 and IC90, the concentration of compound that inhibited cell viability by 50% and 90%, respectively. Compound IC50 and IC90 values were calculated using a colorimetric assay as an indication of cell numbers and cytotoxicity. The activity of the LUC reporter is directly proportional to HCV RNA levels in the human cell line. The HCV-replicon assay was validated in parallel experiments using interferon-alpha-2b as a positive control. Cyclosporine was also tested by way of comparison.

[2] = tested on: human T-lymphoblastoid cell line, CEM-SS; test: Compound toxicity (MTS) in CEM-SS cells; type: cell-based
Experimental: Certain compounds of the present invention were also tested for antiretroviral activity against human immunodeficiency virus-1 (HIV) using infection of the human T-lymphoblastoid cell line, CEM-SS, with the HIV strain […] (Weislow et al., 1989, J. Natl. Cancer Inst. 81:577-586). In this MTS cytoprotection assay, each experiment included cell control wells (cells only), virus control wells (cells plus virus), drug toxicity wells (cells plus drug only), drug calorimetric control wells (drug only) as well as experimental wells (drug plus cells plus virus). Compounds were first dissolved in DMSO and tested using six half-log dilutions, starting with a high concentration of either 20 or 2 μM. HIV-1RF was added to each well in a volume of 50 μL, the amount of virus determined to give approximately 90% cell killing at 6 days post-infection. At assay termination, assay plates were stained with the soluble tetrazolium-based dye MTS (CellTiter 96 Reagent, Promega) to determine cell viability and quantify compound toxicity. MTS is metabolized by the mitochondria enzymes of metabolically active cells to yield a soluble formazan product, providing a quantitative analysis of cell viability and compound cytotoxicity. The assay was validated in parallel experiments using Zidovudine (3′-azido-3′-deoxythymidine or AZT) as a positive control. […]

Structure (SMILES)	safety margin (antiviral IC50 versus cytotoxicity EC50) [1]	cytotoxicity at the concentrations that inhibit HIV [2]
C/C=C/C[C@@H](C)[C@@H](O)[C@H]1C(=O)N[C@@H](CC)C(=O)N(C)CC(=O)N(C)[C@@H](CC(C)C)C(=O)N[C@@H](C(C)C)C(=O)N(C)[C@@H](CC(C)C)C(=O)N[C@@H](C)C(=O)N[C@H](CCCCN(C)C)C(=O)N(C)[C@@H](CC(C)C)C(=O)N(C)[C@@H](CC(C)C)C(=O)N(C)[C@@H](C(C)C)C(=O)N1C [Compound 1, [(N,N-ε-Dimethyl)-D-lysyl]^8cyclosporine]	exhibited a safety margin	not cytotoxic
C/C=C/C[C@@H](C)[C@@H](O)[C@H]1C(=O)N[C@@H](CC)C(=O)N(C)CC(=O)N(C)[C@@H](CC(C)C)C(=O)N[C@@H](C(C)C)C(=O)N(C)[C@@H](CC(C)C)C(=O)N[C@@H](C)C(=O)N[C@H](CCCCN)C(=O)N(C)[C@@H](CC(C)C)C(=O)N(C)[C@@H](CC(C)C)C(=O)N(C)[C@@H](C(C)C)C(=O)N1C [Compound 2, [D-Lysyl]^8cyclosporine]	exhibited a safety margin	–
